ChEMBL document CHEMBL4425107, “Monothiocarbamates Strongly Inhibit Carbonic Anhydrases in Vitro and Possess Intraocular Pressure Lowering Activity in an Animal Model of Glaucoma” (J Med Chem, 2016)
Activity calls are given as the source filed them. The calls are words filed in the database; no cut-off is given here.

Key:
Carbonic anhydrase 2 = Carbonic anhydrase 2 (Homo sapiens, UniProt P00918); assay: Inhibition of human carbonic anhydrase 2 preincubated for 15 mins by CO2 hydration stopped-flow assay
Carbonic anhydrase 9 = Carbonic anhydrase 9 (Homo sapiens, UniProt Q16790); assay: Inhibition of human carbonic anhydrase 9 catalytic domain preincubated for 15 mins by CO2 hydration stopped-flow assay
Carbonic anhydrase 1 = Carbonic anhydrase 1 (Homo sapiens, UniProt P00915); assay: Inhibition of human carbonic anhydrase 1 preincubated for 15 mins by CO2 hydration stopped-flow assay
Oryctolagus cuniculus = assay: Ocular hypotensive activity in sterile hypertonic saline injected hypertensive New Zealand white rabbit assessed as reduction in intraocular pressure at 1 % administered as eye drops up to 240 mins post injection; assay type: functional, organism-based

Sequence of Carbonic anhydrase 1 (P00915 whole entry): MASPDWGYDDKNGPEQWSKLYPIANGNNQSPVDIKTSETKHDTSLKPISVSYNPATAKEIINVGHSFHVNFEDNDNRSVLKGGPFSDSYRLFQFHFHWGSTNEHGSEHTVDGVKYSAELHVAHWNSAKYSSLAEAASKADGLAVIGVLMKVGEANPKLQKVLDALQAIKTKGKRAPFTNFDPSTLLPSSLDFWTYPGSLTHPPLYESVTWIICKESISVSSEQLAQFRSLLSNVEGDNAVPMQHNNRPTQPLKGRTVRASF

Structure (SMILES) | Ki (Carbonic anhydrase 2) [nM] | Ki (Carbonic anhydrase 9) [nM] | Ki (Carbonic anhydrase 1) [nM] | Activity (Oryctolagus cuniculus)
O=C(S)NCCc1ccccc1 |  | 21.5 | > 2000 | Active
CCOC(=O)CN(C)C(=O)S |  | 22.1 |  | 
CC(C)CN(CC(C)C)C(=O)S |  | 9.2 |  | 
CCCCN(CC)C(=O)S | > 2000 | 6.2 |  | 
COc1ccc(CCNC(=O)S)cc1OC |  | 15.2 |  | 
CN1CCN(NC(=O)S)CC1 |  | 7.7 | > 2000 | 
CCCCN(CCCC)C(=O)S | > 2000 | 6.8 |  | 
CN(Cc1ccccc1)C(=O)S | > 2000 | 11.7 | > 2000 | 
CCCN(CCC)C(=O)S |  | 12.5 | > 2000 | 

Further lines, with some results ahead:

Ki (Carbonic anhydrase 2) [nM] | Ki (Carbonic anhydrase 9) [nM] | Ki (Carbonic anhydrase 1) [nM] | Structure (SMILES) | Activity (Oryctolagus cuniculus)
> 2000 | 4.9 |  | O=C(S)N1CCN(c2cccc(Cl)c2)CC1 | 
 | 11.8 | > 2000 | O=C(S)N1CCN(c2ccc(C(F)(F)F)cc2)CC1 | 
 | 6.5 |  | O=C(S)N1CCN(c2ccc(F)cc2)CC1 | 
> 2000 | 13.5 |  | O=C(S)N1CCOCC1 | 
 | 14 |  | O=C(CN1CCN(C(=O)S)CC1)NC1CCCCC1 | Active
